The numbers were not newly measured in patent US20090118352A1, “Broad spectrum microbicidal and spermicidal compositions and methods” (ESAWTECH, LTD., priority 2007, published 2009), which cites them from elsewhere.

In data set [1] the test system is HIV. Conditions: phase III trial.
Data set [2] concerns epithelial cells in the vagina.
For data set [3], the system named is HIV. The settings on record: clinical trial in women, stopped 2007.

Consider NONOXYL-9 [N-9], for which the “HIV transmission rate versus placebo” value in data set [1] (N-9 group) is “marginally higher”. Further, the “efficacy in preventing HIV transmission” value in data set [1] (UN Joint Programme on HIV/AIDS, 2002) is listed as “no efficacy”. The “effect on epithelial cells in the vagina” value in data set [2] was “can disrupt epithelial cells in the vagina”.

For the substance cellulose sulfate, in data set [3], the “HIV infections, active group versus placebo group” value was “higher number of HIV infections in the active group compared with the placebo group”.
